Source: patent US20200270588A1, “GLUCOSYL TRANSFERASE POLYPEPTIDES AND METHODS OF USE” (Syngenta Participations AG, priority 2017, published 2020)

What was measured:
Assay type in all cases: biochemical
[1] = target: T1, SEQ ID NO 18, mutant of Zea mays bx9 glucosyl transferase (Zea mays, UniProt B4G072, A281K/A334K/F21Y/M279F/S117V); assay: UDP-Glo glucosyl transferase assay, purified enzyme; details: herbicide mM: V 0.300, VI 0.250, VII 0.210; IV, VIII, XI, XXI, XX, XVIII, XVI, XV, XIV 0.200; others 1.000
T1 construct: His tag (C); made in house
Procedure: (§1) Glucosyl transferase activity is assayed via measurement of acceptor substrate-dependent production of UDP from ultrapure UDP-glucose using the Promega UDP-Glo™ method and according to the manufacturer's instructions. Assays are run in 96 well microtiter plates.
(§2) Enzyme, typically at a stock concentration of ˜2 mg/ml is diluted to an appropriate concentration in 50 mM K^+ Hepes buffer at pH7.5 containing 0.5 mg/mL bovine serum albumin (BSA) and 5 ul aliquots of this diluted enzyme added to each well of a Perkin Elmer white ½ area 96 well plate. […] Assays are run for an appropriate time (usually 10 to 60 min) so that the amount of UDP formed lies within the most nearly linear part of the UDP standard curve and are stopped with the addition and mixing of 25 ul UDP-Glo™ detection reagent (prepared as described below). Plates are then incubated at room temperature for 60 minutes and then read in a luminescence plate reader (Perkin Elmer Envision 2130 Multilabel Reader). A UDP standard curve is run alongside each set of assays and reagent blank control assays run with DMSO in place of test herbicide. Typically, 300 pmol of UDP corresponds to a Relative Luminescence Unit (RLU) reading of about 1.5E7 and the response curve between 0 and 600 pmol is fitted to a polynomial function (see for example FIG. 2).
(§3) The UDP-Glo™ reagents are made up and used according to the manufacturer's instructions. Thus, Nucleotide Detection Buffer and ATP are combined to make nucleotide detection reagent (NDR) dispensed into aliquots and frozen to be freshly thawed before use. […]
(§4) Table 13 summarizes the results obtained from assays, run as described in Example 1, using a variety of alcohol and aminal PSII herbicides as substrates of the Zea mays bx9 w/t (i.e. C-terminally his tagged SEQ ID no 1) and various mutants of the same, selected from SEQ ID NO: 16-30). All of these proteins were C-terminally his-tagged, expressed and purified as described in Example 1. Assays were run and analyzed as described in example 1. It is seen that various of the mutations herein and combinations thereof led to significant improvements (over the w/t bx9 protein) in catalytic activity versus various of the herbicides and that these improvements are often of sufficient magnitude to be useful for conferring improved herbicide tolerance upon crop. This is especially the case given that even the unmutated w/t bx9 enzyme which has only modest glucosyl transferase activity (for example against compounds V and VI) was nevertheless adequately active to confer significant herbicide tolerance in the glass house (as shown in example 9) even without mutational improvement. It is also seen that particular mutations can lead to very much improved activity in respect of some chemistries but not to others but that, overall, there is at least one variant within the scope of the current invention that provides significant and useful improvement in tolerance to each of the chemistries tested.

[2] = target: T2, SEQ ID NO 23, mutant of Zea mays bx9 glucosyl transferase (Zea mays, UniProt B4G072, A334K/F21Y/L194C/M279F/S117V); assay: as above; details: lower block, concentration printed only in upper block: V 0.300, VII 0.210; IV, VIII, XI, XXI, XX, XVIII, XVI, XV, XIV 0.200; others 1.000 mM
T2 construct: His tag (C); made in house
Procedure: as §1, §2, §3, §4

[3] = target: T3, SEQ ID NO 19, mutant of Zea mays bx9 glucosyl transferase (Zea mays, UniProt B4G072, A281K/A334K/L194V/M279F/S117V); assay: as above; details: herbicide mM: V 0.300, VI 0.250, VII 0.210; IV, VIII, XI, XXI, XX, XVIII, XVI, XV, XIV 0.200; others 1.000
T3 construct: His tag (C); made in house
Procedure: as §1, §2, §3, §4

[4] = target: T4, SEQ ID NO 17, zmBX9 S117V, M279F, A334K mutant (Zea mays, UniProt B4G072, A334K/M279F/S117V); assay: as above; details: herbicide mM: V 0.300, VI 0.250, VII 0.210; IV, VIII, XI, XXI, XX, XVIII, XVI, XV, XIV 0.200; others 1.000
T4 construct: polypeptides were the C-terminally his-tagged; His tag (C); made in house
Procedure: as §1, §2
(§5) The UDP-Glo™ reagents are made up and used according to the manufacturer's instructions. Thus, Nucleotide Detection Buffer and ATP are combined to make nucleotide detection reagent (NDR) dispensed into aliquots and frozen to be freshly thawed before use.
(§6) Km and kcat values in respect of UDP-glucose are derived by carrying out experiments to measure initial rates over a suitable range of concentrations of UDP glucose out at a fixed near saturating concentration of acceptor substrate. Best fit values of kcat, Km and kcat/Km are obtained by direct fitting of the data to the Michaelis-Menten equation using Graphpad Prism™ software.
(§7) Variants of C-terminally his tagged SEQ ID No:1 (w/t bx9 from Zea mays), exemplified as SEQ ID 16-30, were cloned, purified and assayed as described in Example 1. FIG. 4 depicts the data from some experiments to determine the kinetic parameters of some of these variants in respect of herbicide VI and table 12 summarizes the estimates of kinetic parameters obtained from further such experiments in respect of a range of herbicides.
as §4

[5] = target: T5, SEQ ID NO 21, mutant of Zea mays bx9 glucosyl transferase (Zea mays, UniProt B4G072, A334K/F21Y/L194V/M279F/S117V); assay: as above; details: lower block, concentration printed only in upper block: V 0.300, VII 0.210; IV, VIII, XI, XXI, XX, XVIII, XVI, XV, XIV 0.200; others 1.000 mM
T5 construct: His tag (C); made in house
Procedure: as §1, §2, §5, §6, §7, §4

[6] = target: T6, SEQ ID NO 22, mutant of Zea mays bx9 glucosyl transferase (Zea mays, UniProt B4G072, A334K/F21Y/M279F/S117V/T220P); assay: as above; details: lower block, concentration printed only in upper block: V 0.300, VII 0.210; IV, VIII, XI, XXI, XX, XVIII, XVI, XV, XIV 0.200; others 1.000 mM
T6 construct: His tag (C); made in house
Procedure: as §1, §2, §5, §6, §7, §4

[7] = target: T7, Zea mays bx9 glucosyl transferase (C-terminally his tagged SEQ ID NO: 1) (Zea mays, UniProt B4G072); assay: as above; details: for Activity: herbicide mM: V 0.300, VI 0.250, VII 0.210, IV, VIII, XI, XXI, XX, XVIII, XVI, XV, XIV 0.200, others 1.000; for kcat: 0.5 mM UDP-glucose, 25 C, pH 7.5, DMSO reagent blank as control
T7 construct: His tag (C); made in house; host or cells: E. coli BL21 (DE3), pET24a
T7 sequence (B4G072 1-462): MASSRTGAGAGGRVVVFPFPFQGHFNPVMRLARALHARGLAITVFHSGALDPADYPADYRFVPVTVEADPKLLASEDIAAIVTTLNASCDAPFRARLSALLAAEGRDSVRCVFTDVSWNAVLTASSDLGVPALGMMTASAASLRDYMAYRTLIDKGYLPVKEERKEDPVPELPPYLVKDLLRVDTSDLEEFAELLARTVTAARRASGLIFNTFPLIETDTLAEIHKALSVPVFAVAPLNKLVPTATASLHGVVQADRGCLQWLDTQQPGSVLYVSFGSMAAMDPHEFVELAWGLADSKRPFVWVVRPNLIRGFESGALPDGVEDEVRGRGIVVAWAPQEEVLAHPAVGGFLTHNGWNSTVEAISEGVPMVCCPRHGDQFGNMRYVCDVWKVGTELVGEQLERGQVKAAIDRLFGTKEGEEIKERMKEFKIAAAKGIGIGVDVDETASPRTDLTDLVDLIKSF
Procedure: as §1, §2, §5, §6

[8] = target: T8, SEQ ID NO 20, mutant of Zea mays bx9 glucosyl transferase (Zea mays, UniProt B4G072, A281K/A334K/F21Y/L194V/M279F/S117V); details: lower block, concentration printed only in upper block: V 0.300, VII 0.210; IV, VIII, XI, XXI, XX, XVIII, XVI, XV, XIV 0.200; others 1.000 mM
T8 construct: His tag (C); made in house
Procedure: as §1
as §2, with “herbicide.” for “herbicide. Typically, 300 pmol of UDP corresponds to a Relative Luminescence Unit (RLU) reading of about 1.5E7 and the response curve between 0 and 600 pmol is fitted to a polynomial function (see for example FIG. 2).”
as §5, §6
All of these proteins were C-terminally his-tagged, expressed and purified as described in Example 1. Assays were run and analyzed as described in example 1.

Which Activity [1] does the source give for C[C@@H]1C(O)N(c2noc(C(C)(C)C)c2C#N)C(=O)[C@@H]1C (stereo partly drawn) [XIII] here?
Its Activity is 0.051 pmol/sec/pmol enzyme.

What about the Activity [2] of the same molecule?
Its Activity is 0.034 pmol/sec/pmol enzyme.

What about the Activity [3] of the same molecule?
The Activity was 0.095 pmol/sec/pmol enzyme.

And the Activity [4]?
The Activity was 0.020 pmol/sec/pmol enzyme.

What about the Activity [5] of the same molecule?
Its Activity is 0.040 pmol/sec/pmol enzyme.

And the Activity [6]?
Its Activity is 0.073 pmol/sec/pmol enzyme.

And the Activity [7]?
Its Activity is −0.001 pmol/sec/pmol enzyme.

And the Activity [8]?
The Activity was 0.143 pmol/sec/pmol enzyme.

With CC1C(O)N(c2cc(C(F)(F)F)c(Cl)cn2)C(=O)N1C (stereo not drawn) [XIX] as the molecule, how does the Activity [1] read?
The Activity was 0.467 pmol/sec/pmol enzyme.

And the Activity [2]?
Its Activity is 0.207 pmol/sec/pmol enzyme.

What about the Activity [3] of the same molecule?
The Activity was 0.363 pmol/sec/pmol enzyme.

And the Activity [4]?
Its Activity is 0.157 pmol/sec/pmol enzyme.

And the Activity [5]?
The Activity was 0.234 pmol/sec/pmol enzyme.

And the Activity [6]?
The Activity was 0.315 pmol/sec/pmol enzyme.

What about the Activity [7] of the same molecule?
The Activity was −0.001 pmol/sec/pmol enzyme.

What about the Activity [8] of the same molecule?
The Activity was 0.414 pmol/sec/pmol enzyme.

How did the Activity [1] turn out when CC1C(=O)N(c2cc(C(F)(F)F)n(C)n2)C(O)[C@@H]1C (stereo partly drawn) [XVII] was run?
The Activity was 0.237 pmol/sec/pmol enzyme.

What about the Activity [2] of the same molecule?
The Activity was 0.096 pmol/sec/pmol enzyme.

What about the Activity [3] of the same molecule?
Its Activity is 0.331 pmol/sec/pmol enzyme.

And the Activity [4]?
Its Activity is 0.083 pmol/sec/pmol enzyme.

What about the Activity [5] of the same molecule?
The Activity was 0.195 pmol/sec/pmol enzyme.

What about the Activity [6] of the same molecule?
Its Activity is 0.134 pmol/sec/pmol enzyme.

What about the Activity [7] of the same molecule?
Its Activity is −0.001 pmol/sec/pmol enzyme.

And the Activity [8]?
The Activity was 0.402 pmol/sec/pmol enzyme.

For CN1CC(O)N(c2cc(C(F)(F)F)ncn2)C1=O (stereo not drawn) [XXV], which Activity [1] is on record?
Its Activity is 0.553 pmol/sec/pmol enzyme.

And the Activity [2]?
The Activity was 0.449 pmol/sec/pmol enzyme.

What about the Activity [3] of the same molecule?
The Activity was 0.581 pmol/sec/pmol enzyme.

What about the Activity [4] of the same molecule?
Its Activity is 0.106 pmol/sec/pmol enzyme.

And the Activity [5]?
Its Activity is 0.170 pmol/sec/pmol enzyme.

What about the Activity [6] of the same molecule?
Its Activity is 0.458 pmol/sec/pmol enzyme.

What about the Activity [7] of the same molecule?
Its Activity is 0.000 pmol/sec/pmol enzyme.

What about the Activity [8] of the same molecule?
The Activity was 0.758 pmol/sec/pmol enzyme.

Which results are given for CN1CC(O)N(c2nnc(C(C)(C)C)s2)C1=O (stereo not drawn) [IX]?
Activity [1]: 0.115 pmol/sec/pmol enzyme; Activity [2]: 0.013 pmol/sec/pmol enzyme; Activity [3]: 0.070 pmol/sec/pmol enzyme; Activity [4]: 0.035 pmol/sec/pmol enzyme; Activity [5]: 0.012 pmol/sec/pmol enzyme; Activity [6]: 0.071 pmol/sec/pmol enzyme; kcat [7]: 0.036 s⁻¹; Activity [7]: 0.017 pmol/sec/pmol enzyme; Activity [8]: 0.068 pmol/sec/pmol enzyme

What does the source list for C[C@@H]1C(=O)N(c2noc(C(C)(C)C)c2C#N)C(O)[C@H]1C (stereo partly drawn) [XXVI]?
Activity [1]: 0.051 pmol/sec/pmol enzyme; Activity [2]: 0.034 pmol/sec/pmol enzyme; Activity [3]: 0.095 pmol/sec/pmol enzyme; Activity [4]: 0.020 pmol/sec/pmol enzyme; Activity [5]: 0.040 pmol/sec/pmol enzyme; Activity [6]: 0.073 pmol/sec/pmol enzyme; Activity [7]: −0.001 pmol/sec/pmol enzyme; Activity [8]: 0.143 pmol/sec/pmol enzyme

Which results are given for CN1CC(O)N(c2cc(C(C)(C)C)on2)C1=O (stereo not drawn) [XXII]?
Activity [1]: 0.186 pmol/sec/pmol enzyme; Activity [2]: 0.020 pmol/sec/pmol enzyme; Activity [3]: 0.080 pmol/sec/pmol enzyme; Activity [4]: 0.023 pmol/sec/pmol enzyme; Activity [5]: 0.015 pmol/sec/pmol enzyme; Activity [6]: 0.101 pmol/sec/pmol enzyme; Activity [7]: 0.000 pmol/sec/pmol enzyme; Activity [8]: 0.120 pmol/sec/pmol enzyme

With CON1C(=O)N(c2cc(C(F)(F)F)c(Cl)cn2)C(O)C1C (stereo not drawn) [XXI] as the molecule, how does the Activity [1] read?
Its Activity is 1.524 pmol/sec/pmol enzyme.

And the Activity [2]?
Its Activity is 1.746 pmol/sec/pmol enzyme.

What about the Activity [3] of the same molecule?
The Activity was 1.534 pmol/sec/pmol enzyme.

And the Activity [4]?
The Activity was 0.919 pmol/sec/pmol enzyme.

And the Activity [5]?
The Activity was 1.827 pmol/sec/pmol enzyme.

And the Activity [6]?
Its Activity is 1.714 pmol/sec/pmol enzyme.

And the kcat [7]?
The kcat was 0.0001 s⁻¹.

What about the Activity [7] of the same molecule?
The Activity was 0.000 pmol/sec/pmol enzyme.

And the Activity [8]?
The Activity was 1.457 pmol/sec/pmol enzyme.
